Consider seven compounds from paper PMC12005989, “Purification, identification, and in silico screening of a multifunctional octapeptide from semen armeniacae glutelin-2 hydrolysates: restraining mechanisms to Keap1 and ACE, stability, and ferrous-transport efficiency” (Frontiers in Nutrition, 2025).

A short description of series [1]: Ferric reducing ability, Prussian blue method. The conditions noted are these: 100 μg/mL, pH 6.8 phosphate buffer; determined at 700 nm; mean ± SD, triplicate. As to the method:
Ferric reducing ability was defined as the ability of antioxidants to provide protons, which was administrated according to the Prussian blue method ([2]). A total 1 mL of BAG-2H peptide solution (100 μg/mL, dissolved in 0.2 mol/L of phosphate buffer, pH 6.8) was reacted with potassium ferricyanide (10 mg/mL, 4 mL) in the EDZF-C002 thermostatic vibrator (50°C, 220 rpm) for 30 min. The reaction solution was cooled to 25 ± 1°C and precipitated using an equal volume of 100 mg/mL trichloroacetic acid for 10 min. Then, the reaction solution was centrifuged at 3000 × g for 25 min, and 1 mL of the upper solution was pipetted and reacted with 1 mg/mL of FeCl3 (1.2 mL) to produce Prussian blue (potassium ferrocyanide). The concentration of potassium ferrocyanide produced was positively correlated with the ferric reducing ability of the sample ([37]), which was determined at 700 nm using a HD-UV90 ultraviolet–visible spectrophotometer (Holder Technology Co. LTD, Weifang, China).
As described by Wu et al. ([41]), the simulative gastric digestive fluid consisted of sodium chloride (0.18 mol/L), ultrapure water (180 mL), and 0.40 mg/mL of pepsin. […] The ACE inhibition capacity and antioxidant ability of the treated BAG-2H peptides were detected and compared to those of the undigested BAG-2H peptides.

The nature of series [2]: ABTS+ radical quenching, potassium persulfate method. The conditions noted are these: 100 μg/mL; mean ± SD, triplicate. As to the method:
(§1) The free radical quenching ability of samples, including superoxide, 2,2′-hydrazine-bis (3-ethylbenzothiazolin-6-sulfonic acid) diamine salt cation (ABTS^+), and hydroxyl radicals, was determined using the pyrogallol auto-oxidation, potassium persulfate, and β-deoxyribose oxidation methods, according to the same procedures from Tyagi et al. ([6]), Lin et al. ([2]), and Wang et al. ([35]), respectively. Comparison was conducted when the samples were replaced by glutathione (0.1 mg/mL).
As described by Wu et al. ([41]), the simulative gastric digestive fluid consisted of sodium chloride (0.18 mol/L), ultrapure water (180 mL), and 0.40 mg/mL of pepsin. The simulation intestinal digestive juice was composed of NaHCO3 (0.625 g/mL), bile salt (3 g/100 mL), pancreatin (0.35 mg/mL), and 180 mL ultrapure water. In a glass triangle flask, 300 mg of the antihypertensive and antioxidant BAG-2H peptides, 60 mL of ultrapure water, and 150 mL of the simulative gastric fluid were mixed thoroughly. The flask was placed at 37°C in an EDZF-C002 thermostatic vibrator with shaking rate of 140 rpm. After 90 min, 180 mL of the simulative intestinal hydrolysis fluid was added and stirred at 37°C for 2 h. […] The ACE inhibition capacity and antioxidant ability of the treated BAG-2H peptides were detected and compared to those of the undigested BAG-2H peptides.

Series [3] is described as follows: Hydroxyl radical quenching, β-deoxyribose oxidation method. The settings on record: 100 μg/mL; mean ± SD, triplicate. As to the method:
Next, the purification of BAG-2H is a two-step process: first, BAG-2H solution (1 g/L) was subjected to ultra-filtration on an ultra-membrane (filter aperture of 220 nm, Jingfei Membrane Equipment Factory, Luzhou, China). Next, the ultra-filtrate solution (2 mL) was chromatographically purified citing the modified procedures from Li et al. ([30]). Pre-balanced G-15 gel was loaded into a HS-MG-125 chromatographic column (Huasheng Chromatography Tech. Co., Ltd., Wuxi, China). After the BAG-2H ultra-filtrate solution has completely sunk into the column plane, the gel chromatographic column was sealed and eluted using dH2O with a constant velocity of 2.4 mL/min and monitor wavelength of 220 nm. An automatic collector (BT-160I, Thirdli Collection Equipment Co., Ltd., Guangzhou, China) was used to collect the elution, and the collection tube was changed every 5 min ([34]). After 400 min, the profiles of absorbance at 220 nm against elution time were drawn, and the separation fractions were freeze-dried using the EHI-220D lyophilizer. The ACE-inhibitory, ferrous-binding, and hydroxyl radical quenching abilities of the separation fractions were detected citing the hippuric acid ([50]), […]. During screening of the separation fractions, ACE-inhibitory and hydroxyl radical quenching abilities were the primary indexes, and the amino acid sequences of the selected fraction were analyzed.
The free radical quenching ability of samples, including superoxide, 2,2′-hydrazine-bis (3-ethylbenzothiazolin-6-sulfonic acid) diamine salt cation (ABTS^+), and hydroxyl radicals, was determined using the pyrogallol auto-oxidation, potassium persulfate, and β-deoxyribose oxidation methods, according to the same procedures from Tyagi et al. ([6]), Lin et al. ([2]), and Wang et al. ([35]), respectively. […]
Physicochemical properties and functionalities of BAG-2H peptides, including antihypertension and antioxidant activity, were in silico analyzed with the AHTpin^2 and Peptide Ranker server^3 databases ([39]), respectively. […]

The nature of series [4]: Superoxide radical quenching, pyrogallol auto-oxidation method. The conditions noted are these: 100 μg/mL; mean ± SD, triplicate. The protocol: as §1
(§2) As described by Wu et al. ([41]), the simulative gastric digestive fluid consisted of sodium chloride (0.18 mol/L), ultrapure water (180 mL), and 0.40 mg/mL of pepsin. The simulation intestinal digestive juice was composed of NaHCO3 (0.625 g/mL), bile salt (3 g/100 mL), pancreatin (0.35 mg/mL), and 180 mL ultrapure water. In a glass triangle flask, 300 mg of the antihypertensive and antioxidant BAG-2H peptides, 60 mL of ultrapure water, and 150 mL of the simulative gastric fluid were mixed thoroughly. The flask was placed at 37°C in an EDZF-C002 thermostatic vibrator with shaking rate of 140 rpm. After 90 min, 180 mL of the simulative intestinal hydrolysis fluid was added and stirred at 37°C for 2 h. To stop the hydrolysis, the digestion solution in the flask was boiled for 6 min and then cooled by running water to room temperature. The ACE inhibition capacity and antioxidant ability of the treated BAG-2H peptides were detected and compared to those of the undigested BAG-2H peptides.

Series [5] can be described thus: Ferrous solubility of ferrous chelate during simulated gastrointestinal digestion. Type of series: in vitro ADME. The conditions noted are these: soluble ferrous by o-phenanthroline every 30 min. As to the method:
Next, the intestinal digestive fluid was added, and the digestion was continued at pH 6.8 for 2 h in the EDZF-C002 thermostatic vibrator ([…], 175 rpm).

For series [6] the following is noted: cited from earlier work. The text has this: The Asp., Val, Tyr, Phe, and Gly in […] can effectively bind to ferrous ions ([16], [20]). The γ-carboxyl group in Asp and phenolic hydroxyl groups in Tyr and Phe can form ionic bond with ferrous ions ([17]). Ascribed to the excellent metal ion-chelating capacity, Gly is an ideal ingredient for iron or calcium supplement ([45]). In addition, the carbo ...

For another series, the system named is ACE. Further details: method as in 2 sources, ref 34 = [34]; doi:10.1016/j.fbio.2023.103419; 34. Zheng Y Ma J Guo Y Zhuang Y Yang Z Zhu Z . In silico screening and characterization, inhibition mechanism on ACE, and stability of antihypertensive peptides with Zn-chelating capacity identified f ||| ref 45 = [45]; PMID 38470110; doi:10.1021/acs.jafc.4c00829; 45. Martineau-Côté D Achouri A Karboune S L’Hocine L . Antioxidant and angiotensin-converting enzyme inhibitory activity of Faba bean-derived peptides after in vitro gastrointestinal digestion: insigh. The conditions noted are these: read-out: ACE-inhibitory IC50, cited from earlier work.

A short description of series [7]: Gastrointestinal stability of peptide (simulated gastric and intestinal digestion). It is filed as in vitro ADME. The conditions noted are these: simulated gastric fluid (pepsin 0.40 mg/mL) 90 min, then intestinal fluid (pancreatin, bile salt) 2 h, 37°C; read-out retained activity; p > 0.05. The protocol: as §2

Where two headings read alike, the source gives them in different places. Ends that are not written are not given here.

Consider `N[C@@H](CCC(=O)N[C@@H](CS)C(=O)NCC(=O)O)C(=O)O` [Glutathione, glutathione, reference compound], for which the “Ferric reducing ability, before gastrointestinal” value in series [1] came to 0.675 ± 0.019a. Moreover, the “ABTS+ scavenging activity, before gastrointestinal” value in series [2] is 79.25 ± 1.67%a. In series [3], the “·OH scavenging activity, before gastrointestinal” value is 95.56% ± 1.38%a. For the same compound, the “Superoxide radical scavenging ability, before gastrointestinal” value in series [4] is given as 90.52% ± 4.97%a.
`[Cl][Fe][Cl]` [ferrous chloride]: the “Ferrous solubility during gastric digestion (0–90 min)” value in series [5] (simulated gastric fluid with pepsin, pH 1.9, 37°C, 175 rpm) is “relatively stable”. Moreover, in series [5] (simulated intestinal fluid, pH 6.8, 37°C), the “Ferrous solubility during intestinal digestion (91–180 min)” value is listed as “apparently decreased”.
For the compound FEDPEFE [scallop skirts peptide], the Ferrous chelating ability in series [6] (scallop skirts peptide) is recorded as 9.39 mg/g.
Usually IC50 stands for the concentration at which inhibition is half-maximal. Consider GCHHY, for which the IC50 with ACE (peptide from millet bran glutelin-2) is 147 µM.
As to PVDFAGFY, the “Stability of antioxidant activity and ACE-inhibitory capacity during gastrointestinal digestion” value in series [7] was “stable during gastrointestinal digestion”.
On to SELE [millet bran globulin peptide], for which the Ferrous chelating ability in series [6] (millet bran globulin peptide) is 7.93 mg/g.
Take VIPTEPPHA: the IC50 with ACE (peptide from Faba beans) is 260 µM.
